Consider three molecules from ChEMBL document CHEMBL5653631, “A Potent and Selective ULK1 Inhibitor Suppresses Autophagy and Sensitizes Cancer Cells to Nutrient Stress” (iScience, 2018).

Assay [1] has as its target T1, Discoidin domain-containing receptor 2 (Homo sapiens) (UniProt Q16832).
T1 sequence (whole entry): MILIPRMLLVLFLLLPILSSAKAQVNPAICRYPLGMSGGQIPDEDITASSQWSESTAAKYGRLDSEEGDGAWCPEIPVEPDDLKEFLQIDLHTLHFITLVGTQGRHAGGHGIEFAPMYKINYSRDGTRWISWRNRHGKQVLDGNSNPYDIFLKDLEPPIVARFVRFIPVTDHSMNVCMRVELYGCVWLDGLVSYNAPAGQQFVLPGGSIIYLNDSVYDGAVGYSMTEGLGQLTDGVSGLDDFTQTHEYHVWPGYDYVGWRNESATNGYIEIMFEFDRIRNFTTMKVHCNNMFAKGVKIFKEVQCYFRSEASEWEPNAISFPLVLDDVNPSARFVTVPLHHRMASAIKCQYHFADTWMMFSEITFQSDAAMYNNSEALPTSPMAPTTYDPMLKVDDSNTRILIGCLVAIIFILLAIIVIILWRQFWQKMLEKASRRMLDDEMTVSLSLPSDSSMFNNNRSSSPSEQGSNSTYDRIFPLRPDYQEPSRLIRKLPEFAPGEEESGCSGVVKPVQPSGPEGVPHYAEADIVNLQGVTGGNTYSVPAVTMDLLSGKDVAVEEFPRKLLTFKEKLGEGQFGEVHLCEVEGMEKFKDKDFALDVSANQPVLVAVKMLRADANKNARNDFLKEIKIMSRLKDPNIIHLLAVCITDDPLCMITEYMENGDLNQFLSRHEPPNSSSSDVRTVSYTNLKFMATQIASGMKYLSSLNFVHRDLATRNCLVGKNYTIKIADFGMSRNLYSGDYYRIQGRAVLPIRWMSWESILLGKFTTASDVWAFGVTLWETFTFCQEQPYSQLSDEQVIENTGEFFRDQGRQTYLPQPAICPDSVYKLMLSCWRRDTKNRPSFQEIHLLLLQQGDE
Description: Inhibition of human recombinant DDR2 at 40 nM related to control ULK1.

The target of assay [2] is T2, Muscle, skeletal receptor tyrosine-protein kinase (Homo sapiens) (UniProt O15146).
T2 sequence (whole entry): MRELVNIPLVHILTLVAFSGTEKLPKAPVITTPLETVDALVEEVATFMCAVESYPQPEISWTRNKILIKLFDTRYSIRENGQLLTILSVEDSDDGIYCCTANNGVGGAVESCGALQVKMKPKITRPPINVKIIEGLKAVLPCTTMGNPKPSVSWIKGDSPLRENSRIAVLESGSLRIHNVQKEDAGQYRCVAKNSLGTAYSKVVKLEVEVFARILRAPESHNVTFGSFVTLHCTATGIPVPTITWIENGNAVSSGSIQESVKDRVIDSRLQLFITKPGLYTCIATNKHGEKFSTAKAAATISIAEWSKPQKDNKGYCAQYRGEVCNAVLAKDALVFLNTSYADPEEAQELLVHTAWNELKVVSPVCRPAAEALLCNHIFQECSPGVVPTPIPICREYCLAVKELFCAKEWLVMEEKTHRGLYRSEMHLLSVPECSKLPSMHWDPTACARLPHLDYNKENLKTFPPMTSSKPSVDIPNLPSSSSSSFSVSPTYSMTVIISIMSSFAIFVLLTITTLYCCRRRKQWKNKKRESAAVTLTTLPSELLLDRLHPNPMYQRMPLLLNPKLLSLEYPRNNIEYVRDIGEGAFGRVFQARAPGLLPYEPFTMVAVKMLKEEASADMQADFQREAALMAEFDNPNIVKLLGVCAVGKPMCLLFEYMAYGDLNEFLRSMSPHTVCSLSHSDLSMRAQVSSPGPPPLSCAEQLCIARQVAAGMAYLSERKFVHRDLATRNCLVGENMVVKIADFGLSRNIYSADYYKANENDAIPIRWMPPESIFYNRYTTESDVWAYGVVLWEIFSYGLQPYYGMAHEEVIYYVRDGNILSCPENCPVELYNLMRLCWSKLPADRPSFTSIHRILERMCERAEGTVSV
As to the kind of experiment: Inhibition of human recombinant MUSK at 40 nM related to control ULK1.

In assay [3] the target is Proto-oncogene tyrosine-protein kinase ROS (Homo sapiens) (UniProt P08922). As to the kind of experiment: Inhibition of human recombinant ROS at 500 nM in presence of ATP by radiometric assay relative to control.
Chain of Proto-oncogene tyrosine-protein kinase ROS (Homo sapiens) (P08922 whole entry): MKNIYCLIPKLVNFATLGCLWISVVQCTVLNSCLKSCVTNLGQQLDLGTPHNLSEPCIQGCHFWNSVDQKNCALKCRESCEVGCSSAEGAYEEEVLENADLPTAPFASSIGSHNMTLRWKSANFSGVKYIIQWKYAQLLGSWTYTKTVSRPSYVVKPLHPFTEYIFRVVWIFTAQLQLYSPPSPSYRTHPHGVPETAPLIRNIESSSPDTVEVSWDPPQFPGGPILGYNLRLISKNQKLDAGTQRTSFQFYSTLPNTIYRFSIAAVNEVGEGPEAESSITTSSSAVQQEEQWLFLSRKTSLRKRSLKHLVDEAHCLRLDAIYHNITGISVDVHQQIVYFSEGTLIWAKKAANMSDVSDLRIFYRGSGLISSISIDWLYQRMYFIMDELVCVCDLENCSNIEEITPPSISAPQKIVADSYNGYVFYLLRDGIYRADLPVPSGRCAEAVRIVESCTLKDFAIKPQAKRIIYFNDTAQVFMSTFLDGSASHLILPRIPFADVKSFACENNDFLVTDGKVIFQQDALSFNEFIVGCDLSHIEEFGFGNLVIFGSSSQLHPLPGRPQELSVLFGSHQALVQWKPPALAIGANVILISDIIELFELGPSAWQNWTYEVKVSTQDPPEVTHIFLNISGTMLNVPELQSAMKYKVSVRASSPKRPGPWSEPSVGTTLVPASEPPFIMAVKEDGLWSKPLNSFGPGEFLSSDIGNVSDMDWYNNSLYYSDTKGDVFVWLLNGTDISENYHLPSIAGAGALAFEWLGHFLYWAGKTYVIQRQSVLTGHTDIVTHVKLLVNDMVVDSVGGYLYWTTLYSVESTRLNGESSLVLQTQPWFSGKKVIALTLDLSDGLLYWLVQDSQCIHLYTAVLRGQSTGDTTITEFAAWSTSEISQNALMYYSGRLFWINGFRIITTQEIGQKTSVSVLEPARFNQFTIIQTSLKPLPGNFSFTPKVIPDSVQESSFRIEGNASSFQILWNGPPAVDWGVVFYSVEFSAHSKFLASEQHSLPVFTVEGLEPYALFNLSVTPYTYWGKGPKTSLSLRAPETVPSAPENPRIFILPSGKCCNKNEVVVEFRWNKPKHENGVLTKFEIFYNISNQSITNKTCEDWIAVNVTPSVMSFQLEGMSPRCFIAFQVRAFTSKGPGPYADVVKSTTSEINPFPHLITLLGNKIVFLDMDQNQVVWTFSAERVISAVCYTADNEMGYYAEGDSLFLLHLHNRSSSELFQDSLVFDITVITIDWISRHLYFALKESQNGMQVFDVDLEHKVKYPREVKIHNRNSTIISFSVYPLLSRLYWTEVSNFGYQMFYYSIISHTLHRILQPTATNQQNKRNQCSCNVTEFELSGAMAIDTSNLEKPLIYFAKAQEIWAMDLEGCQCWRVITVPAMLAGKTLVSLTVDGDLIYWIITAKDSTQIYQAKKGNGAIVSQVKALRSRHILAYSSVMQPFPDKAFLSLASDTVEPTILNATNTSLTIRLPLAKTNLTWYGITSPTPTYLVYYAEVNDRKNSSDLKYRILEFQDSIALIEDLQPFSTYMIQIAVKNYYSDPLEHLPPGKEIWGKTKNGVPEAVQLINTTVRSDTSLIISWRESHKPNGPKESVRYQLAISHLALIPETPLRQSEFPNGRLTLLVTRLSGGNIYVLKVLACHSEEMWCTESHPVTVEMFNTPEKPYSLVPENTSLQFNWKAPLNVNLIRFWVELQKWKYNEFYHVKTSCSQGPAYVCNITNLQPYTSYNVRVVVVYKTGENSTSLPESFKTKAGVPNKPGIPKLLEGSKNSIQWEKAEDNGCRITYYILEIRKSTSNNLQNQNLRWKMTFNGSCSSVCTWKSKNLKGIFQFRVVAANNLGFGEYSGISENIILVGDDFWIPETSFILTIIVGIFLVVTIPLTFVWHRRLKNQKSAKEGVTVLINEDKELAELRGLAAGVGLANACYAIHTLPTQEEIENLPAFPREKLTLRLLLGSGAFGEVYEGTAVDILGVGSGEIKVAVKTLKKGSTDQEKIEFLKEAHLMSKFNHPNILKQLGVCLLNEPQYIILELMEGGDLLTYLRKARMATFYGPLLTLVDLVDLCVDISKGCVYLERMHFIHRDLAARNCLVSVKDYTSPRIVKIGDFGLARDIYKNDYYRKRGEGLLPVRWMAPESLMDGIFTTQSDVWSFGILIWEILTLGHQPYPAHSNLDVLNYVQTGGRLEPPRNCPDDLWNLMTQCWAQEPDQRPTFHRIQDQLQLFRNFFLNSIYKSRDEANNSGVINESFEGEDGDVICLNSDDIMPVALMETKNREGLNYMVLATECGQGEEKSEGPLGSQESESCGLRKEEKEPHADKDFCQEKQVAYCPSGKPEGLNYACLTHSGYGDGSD
For assay [4], the target named is T3, Protein kinase C epsilon type (Homo sapiens) (UniProt Q02156).
T3 sequence (whole entry): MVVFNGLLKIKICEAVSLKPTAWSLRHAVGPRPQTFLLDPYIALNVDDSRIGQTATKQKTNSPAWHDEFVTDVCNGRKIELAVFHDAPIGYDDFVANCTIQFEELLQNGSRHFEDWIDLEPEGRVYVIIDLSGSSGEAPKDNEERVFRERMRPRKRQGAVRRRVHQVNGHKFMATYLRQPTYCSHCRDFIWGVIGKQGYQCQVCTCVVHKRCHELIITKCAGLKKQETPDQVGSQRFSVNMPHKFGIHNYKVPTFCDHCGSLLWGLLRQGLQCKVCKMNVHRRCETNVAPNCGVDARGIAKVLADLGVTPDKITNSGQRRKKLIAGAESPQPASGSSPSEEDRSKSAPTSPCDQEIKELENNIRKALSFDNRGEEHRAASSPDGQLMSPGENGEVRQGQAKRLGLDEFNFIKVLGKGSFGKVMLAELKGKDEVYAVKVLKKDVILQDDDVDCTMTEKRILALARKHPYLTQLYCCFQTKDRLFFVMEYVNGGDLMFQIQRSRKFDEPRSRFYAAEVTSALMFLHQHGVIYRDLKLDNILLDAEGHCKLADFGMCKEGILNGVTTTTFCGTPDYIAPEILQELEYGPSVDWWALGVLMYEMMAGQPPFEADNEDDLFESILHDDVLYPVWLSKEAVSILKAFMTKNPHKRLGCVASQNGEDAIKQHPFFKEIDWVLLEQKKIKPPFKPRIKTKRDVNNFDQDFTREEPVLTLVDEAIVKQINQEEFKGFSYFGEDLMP
As to the kind of experiment: Inhibition of human recombinant PKCe at 15 nM in presence of ATP by radiometric assay relative to control.

For the molecule `O=C(N[C@@H](C1CC1)C(F)(F)F)c1cc(-c2cnn3cc(-c4ccc(F)cc4)cnc23)cs1`, the fold change (FC) came out at 0 in assay [1] and 0.18 in assay [2].

As for `CNC(=O)c1ccccc1Oc1nc(Nc2cc(OC)c(OC)c(OC)c2)ncc1Br`, the inhibition in assay [3] came to 0%. In the case of `CC(C)[C@H](NC(=O)c1cc(-c2cnn3cc(-c4ccc(OCCN5CCCCC5)cc4)cnc23)cs1)C(F)(F)F`, the inhibition in assay [4] came out at 0%.
